According to ChEMBL document CHEMBL4665793, “Screening and Reverse-Engineering of Estrogen Receptor Ligands as Potent Pan-Filovirus Inhibitors” (J Med Chem, 2020):
Calls of active or inactive are those of the source. The rule behind the calls is not given here.

Key:
in vitro [1] = conditions: human, A549 cells
Marburgvirus [2] = assay: microbe, parasite or virus in culture; conditions: Orthomarburgvirus, Musoke, A549, 48 h
Marburgvirus [3] = type: functional, organism-based; conditions: Orthomarburgvirus, Angola, A549, 24 h
Zaire ebolavirus = assay: microbe, parasite or virus in culture; conditions: Mayinga, Zaire, 1976, A549, 48 h
in vitro [4] = conditions: human, A549 cells; remark: listed apart in the source
[5] = biological target: T1, Estrogen receptor (Homo sapiens) (UniProt P03372); assay: Agonist activity at ER-alpha in human MCF-7:WS8 cells transfected with an estrogen response element incubated for 18 hrs by luciferase reporter gene assay; type: cell-based; conditions: MCF7
T1 sequence (whole entry): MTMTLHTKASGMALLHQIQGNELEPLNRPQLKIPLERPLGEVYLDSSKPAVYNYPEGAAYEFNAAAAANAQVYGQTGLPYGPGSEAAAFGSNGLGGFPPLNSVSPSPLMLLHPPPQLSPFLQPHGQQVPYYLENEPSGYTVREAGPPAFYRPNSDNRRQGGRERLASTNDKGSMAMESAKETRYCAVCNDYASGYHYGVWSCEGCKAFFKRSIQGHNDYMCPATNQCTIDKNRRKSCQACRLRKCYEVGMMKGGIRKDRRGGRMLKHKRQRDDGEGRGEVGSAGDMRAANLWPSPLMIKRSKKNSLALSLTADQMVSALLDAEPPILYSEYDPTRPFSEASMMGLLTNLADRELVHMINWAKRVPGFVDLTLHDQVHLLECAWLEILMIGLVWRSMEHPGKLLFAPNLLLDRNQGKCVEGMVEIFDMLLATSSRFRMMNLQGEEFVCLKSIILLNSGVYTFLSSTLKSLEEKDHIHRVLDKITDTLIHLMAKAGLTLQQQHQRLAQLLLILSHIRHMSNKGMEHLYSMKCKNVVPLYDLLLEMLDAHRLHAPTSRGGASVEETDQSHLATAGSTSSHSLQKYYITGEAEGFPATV

A549 = type: cell-based; conditions: human
Mengla dianlovirus = assay: Antiviral activity against Mengla-virus assessed as inhibition of viral entry; type: functional
Ebolavirus [6] = assay: Antiviral activity against Ebolavirus (pRESTV) assessed as inhibition of viral entry; type: functional, organism-based
[7] = test system: Vesicular stomatitis virus; assay: Antiviral activity against vesicular stomatitis virus assessed as inhibition of viral entry; type: functional, organism-based
[8] = biological target: T1, Estrogen receptor (Homo sapiens); assay: Antagonist activity at ER-alpha in human MCF-7:WS8 cells transfected with an estrogen response element assessed as suppression of estrogen-induced response incubated for 18 hrs by luciferase reporter gene assay; type: cell-based; conditions: MCF7
Influenza A virus = assay: Antiviral activity against Influenza A virus H5N1 assessed as inhibition of viral entry; type: functional, organism-based
Ebolavirus [9] = assay: Antiviral activity against Ebolavirus Tai Forest assessed as inhibition of viral entry; type: functional, organism-based
Ebolavirus [10] = assay: Antiviral activity against Ebolavirus (pBDBV) assessed as inhibition of viral entry; type: functional, organism-based

SMILES | selectivity ratio (in vitro [1]) | IC50 (Marburgvirus [2]) | IC50 (Marburgvirus [3]) | IC50 (Zaire ebolavirus) | selectivity ratio (in vitro [4]) | Activity [5] | CC50 (A549) | inhibition (Mengla dianlovirus) | inhibition (Ebolavirus [6]) | inhibition [7] | inhibition [8] | inhibition (Influenza A virus) | inhibition (Ebolavirus [9]) | inhibition (Ebolavirus [10])
CC/C(=C(/c1ccc(NC(=O)N2CCN(C)CC2)cc1)c1ccc(OCCN2CCCC2)cc1)c1ccccc1 | 740 | 0.75 µM | 1.06 µM | 0.03 µM | 11 | – | – | – | – | – | – | – | – | –
Nc1ccc(-c2sc3cc(O)ccc3c2Oc2ccc(OCCN3CCCCC3)cc2)cc1 | > 770 | 1.45 µM | > 6.25 µM | 0.13 µM | > 69 | inactive | – | – | – | – | – | – | – | –
Cc1cc(F)cc(C)c1C(=O)c1sc2cc(O)ccc2c1Oc1ccc(OCCN2CC(CF)C2)cc1 | 21 | 1.87 µM | – | 1.32 µM | 15 | – | – | – | – | – | – | – | – | –
CC/C(=C(/c1ccc(NC(=O)C2CCN(C3CCN(C)CC3)CC2)cc1)c1ccc(OCCN2CCCC2)cc1)c1ccccc1 | 79 | 2.05 µM | 1.07 µM | 0.18 µM | 16 | – | – | – | – | – | – | – | – | –
Cc1ccccc1C(=O)c1sc2cc(O)ccc2c1Oc1ccc(OCCN2CC(CF)C2)cc1 | 27 | 3.88 µM | > 6.25 µM | 1.02 µM | 7 | – | – | – | – | – | – | – | – | –
COc1ccc2c(Oc3ccc(OCCN4CCCCC4)cc3)c(-c3ccc(Br)cc3)sc2c1 | 74 | 1.25 µM | – | 0.63 µM | 37 | – | – | – | – | – | – | – | – | –
Cc1c(-c2ccc(O)cc2)n(Cc2ccc(OCCN3CCCCCC3)cc2)c2ccc(O)cc12 [BAZEDOXIFENE] | 10 | 3.83 µM | – | 2.24 µM | 6 | – | – | – | – | – | – | – | – | –
CC/C(=C(/c1ccc(N)cc1)c1ccc(OCCN2CCCC2)cc1)c1ccccc1 | 147 | 1.07 µM | 1.78 µM | 0.13 µM | 13 | – | – | – | – | – | – | – | – | –
CC/C(=C(/c1ccc(NC(=O)C2CCN(C)C2)cc1)c1ccc(OCCN2CCCC2)cc1)c1ccccc1 (stereo not drawn) | 590 | 0.72 µM | 0.96 µM | 0.02 µM | 30 | inactive | 11.8 µM | Active | Active | inactive | inactive | inactive | Active | Active
CCC(c1ccccc1)C(O)(c1ccc(OCCN(C)C)cc1)c1cccc(O)c1 (stereo not drawn) | 22 | 4.4 µM | – | 1.74 µM | 9 | – | – | – | – | – | – | – | – | –
CC1=C(c2ccc(O)cc2)[C@H](c2ccc(OCCN3CCCCC3)cc2)Oc2ccccc21 | 11 | 0.9 µM | – | 1.5 µM | 19 | – | – | – | – | – | – | – | – | –
Oc1ccc2c(Oc3ccc(OCCN4CCCCC4)cc3)c(-c3ccccc3)sc2c1 | 45 | 0.67 µM | > 6.25 µM | 0.3 µM | 20 | – | – | – | – | – | – | – | – | –
COc1ccc(-c2sc3cc(OC)ccc3c2Oc2ccc(OCCN3CCC(CCNC(=O)CCCCNC(=O)OC(C)(C)C)CC3)cc2)cc1 | 57 | 0.6 µM | – | 0.8 µM | 76 | – | – | – | – | – | – | – | – | –
CCC(=C(c1ccc(OCCN2CCCC2)cc1)c1ccc(OCCN2CCCC2)cc1)c1ccccc1 | 405 | 0.61 µM | 1.56 µM | 0.02 µM | 13 | inactive | 8.1 µM | – | – | – | – | – | – | –
CCNCCc1ccc(CN(CC)c2cc(OC)ccc2[C@@H]2CCc3cc(O)ccc3C2)cc1 [ELACESTRANT] | 44 | 1.3 µM | – | 0.24 µM | 8 | – | – | – | – | – | – | – | – | –
CC/C(=C(/c1ccc(NC(=O)CN2CCOCC2)cc1)c1ccc(OCCN2CCOCC2)cc1)c1ccccc1 | 40 | 4.23 µM | 3.24 µM | 0.74 µM | 13 | – | – | – | – | – | – | – | – | –
COc1ccc2c(c1)CCC(c1ccccc1)=C2c1ccc(OCCN2CCCC2)cc1 [NAFOXIDINE] | 82 | 1.3 µM | > 6.25 µM | 0.1 µM | 6 | – | – | – | – | – | – | – | – | –
Oc1ccc2c(Oc3ccc(OCCN4CCCCC4)cc3)c(-c3ccc(F)cc3)sc2c1 | 15 | 2.04 µM | – | 0.98 µM | 7 | – | – | – | – | – | – | – | – | –
OCCOc1ccc(/C(=C(/CCCl)c2ccccc2)c2ccccc2)cc1 [OSPEMIFENE] | 7 | 34.4 µM | – | 3.8 µM | < 1 | – | – | – | – | – | – | – | – | –
COc1ccc2c(Oc3ccc(OCCN4CCCCC4)cc3)c(-c3ccc(Br)cc3)[s+]([O-])c2c1 (stereo not drawn) | > 47 | 1.81 µM | – | 2.14 µM | > 55 | – | – | – | – | – | – | – | – | –
CC/C(=C(/c1ccc(NC(=O)CC2CCN(C)CC2)cc1)c1ccc(OCCN2CCCC2)cc1)c1ccccc1 | 1400 | 0.62 µM | 0.87 µM | 0.006 µM | 33 | – | – | – | – | – | – | – | – | –
CC/C(=C(/c1ccc(NC(=O)CN2CCN(C)CC2)cc1)c1ccc(OCCN2CCCC2)cc1)c1ccccc1 | 1400 | 0.42 µM | 0.36 µM | 0.01 µM | 7 | – | – | – | – | – | – | – | – | –
CC/C(=C(/c1ccc(NC(=O)C2CCN(C)CC2)cc1)c1ccc(OCCN2CCCC2)cc1)c1ccccc1 | 590 | 0.54 µM | 0.64 µM | 0.01 µM | 12 | inactive | – | Active | Active | inactive | inactive | inactive | Active | Active
CC/C(=C(/c1ccc(NC(=O)CN2CCOCC2)cc1)c1ccc(OCCN2CCCC2)cc1)c1ccccc1 | 47 | 1.21 µM | 2.8 µM | 0.35 µM | 14 | – | – | – | – | – | – | – | – | –
CC/C(=C(/c1ccc(NCCN2CCCC2)cc1)c1ccc(OCCN2CCCC2)cc1)c1ccccc1 | 79 | > 12.5 µM | > 25 µM | 0.33 µM | 18 | – | – | – | – | – | – | – | – | –
CN(C)CCOc1ccc(/C(=C(/CCCl)c2ccccc2)c2ccccc2)cc1 [TOREMIFENE] | 229 | 2.6 µM | 3.9 µM | 0.07 µM | 6 | – | – | Active | Active | – | – | – | Active | Active
COc1ccc2c(Oc3ccc(OCCN4CCCCC4)cc3)c(-c3ccccc3)sc2c1 | 88 | 3.18 µM | > 6.25 µM | 0.26 µM | 8 | – | – | – | – | – | – | – | – | –
Cc1c(-c2ccc(O)cc2)nn(-c2ccc(O)cc2)c1-c1ccc(OCCN2CCCCC2)cc1 | 11 | 1.19 µM | – | 1.31 µM | 12 | – | – | – | – | – | – | – | – | –
CC/C(=C(/c1ccc(NCCN2CCOCC2)cc1)c1ccc(OCCN2CCOCC2)cc1)c1ccccc1 | 111 | 2.18 µM | 2.9 µM | 0.23 µM | < 2 | – | – | – | – | – | – | – | – | –
